Test results reported in ChEMBL document CHEMBL5463722, “Data for DCP probe BI-5524” (2023).
Values belong to the compound of their own block, whether it stands above or below them. Calls of active or inactive are those of the source. The calls are words filed in the database; no cut-off is given here.

Experiments:
[1] = biological target: Prostaglandin G/H synthase 1 (Homo sapiens) (UniProt P23219); experiment: Inhibitor of COX-1 in the Eurofins Cerep SafetyScreen44 (BI) by Fluorimetry (Cerep_4173); conditions: Compound concentration 10.0 uM
[2] = biological target: Prostaglandin G/H synthase 2 (Homo sapiens) (UniProt P35354); experiment: Inhibitor of COX-2 in the Eurofins Cerep SafetyScreen44 (BI) by Fluorimetry (Cerep_4186); conditions: Compound concentration 10.0 uM
Chain of Prostaglandin G/H synthase 2 (Homo sapiens) (P35354 whole entry): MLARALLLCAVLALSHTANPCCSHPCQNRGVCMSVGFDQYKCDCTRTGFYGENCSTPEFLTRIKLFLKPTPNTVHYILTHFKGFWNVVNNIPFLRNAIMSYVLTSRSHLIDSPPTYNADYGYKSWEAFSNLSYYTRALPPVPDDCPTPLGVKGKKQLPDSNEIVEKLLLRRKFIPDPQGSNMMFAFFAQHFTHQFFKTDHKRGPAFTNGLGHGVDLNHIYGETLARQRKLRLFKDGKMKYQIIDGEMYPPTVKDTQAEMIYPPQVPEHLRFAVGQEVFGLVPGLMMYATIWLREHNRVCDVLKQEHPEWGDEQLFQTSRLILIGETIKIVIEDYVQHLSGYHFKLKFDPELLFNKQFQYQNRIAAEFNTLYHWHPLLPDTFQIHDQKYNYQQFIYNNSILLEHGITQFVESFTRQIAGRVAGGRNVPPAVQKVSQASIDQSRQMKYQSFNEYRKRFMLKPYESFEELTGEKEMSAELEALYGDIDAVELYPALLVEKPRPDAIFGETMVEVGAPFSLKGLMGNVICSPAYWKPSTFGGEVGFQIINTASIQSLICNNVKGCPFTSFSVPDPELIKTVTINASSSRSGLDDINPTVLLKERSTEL

[3] = biological target: Alpha-2A adrenergic receptor (Homo sapiens) (UniProt P08913); experiment: Inhibitor of ALPHA2A/HU in the Eurofins Cerep SafetyScreen44 (BI) by Radioactive Assay (Cerep_13); conditions: Compound concentration 10.0 uM
Chain of Alpha-2A adrenergic receptor (Homo sapiens) (P08913 whole entry): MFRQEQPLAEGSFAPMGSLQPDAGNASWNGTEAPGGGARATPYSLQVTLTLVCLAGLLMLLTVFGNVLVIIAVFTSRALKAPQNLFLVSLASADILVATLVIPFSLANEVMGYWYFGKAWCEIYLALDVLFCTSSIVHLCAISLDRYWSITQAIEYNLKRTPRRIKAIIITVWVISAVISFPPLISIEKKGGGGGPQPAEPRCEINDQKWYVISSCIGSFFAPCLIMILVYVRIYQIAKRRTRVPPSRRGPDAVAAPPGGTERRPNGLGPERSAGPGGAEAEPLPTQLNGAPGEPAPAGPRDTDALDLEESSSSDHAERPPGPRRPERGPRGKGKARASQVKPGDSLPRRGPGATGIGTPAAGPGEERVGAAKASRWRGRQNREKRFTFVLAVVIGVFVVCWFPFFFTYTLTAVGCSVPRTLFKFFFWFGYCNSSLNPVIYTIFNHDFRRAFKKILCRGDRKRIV

[4] = biological target: L-type calcium channel (Cav1.2, alpha-1C), dihydropyridine site (Rattus norvegicus, UniProt P22002); experiment: Inhibitor of CA+/DHPSI/R in the Eurofins Cerep SafetyScreen44 (BI) by Radioactive Assay (Cerep_161); type: protein assay; design: scale not given: the % may be the effect or the level left; conditions: rat brain, probe [3H](+)PN200-110, compound concentration 10 uM, read-out: % Ctrl
[5] = biological target: Cannabinoid receptor 2 (Homo sapiens) (UniProt P34972); experiment: Activity against CB2/PERIPH/H in the Eurofins Cerep SafetyScreen44 (BI) by Radioactive Assay (Cerep_37); conditions: Compound concentration 10.0 uM
Chain of Cannabinoid receptor 2 (Homo sapiens) (P34972 whole entry): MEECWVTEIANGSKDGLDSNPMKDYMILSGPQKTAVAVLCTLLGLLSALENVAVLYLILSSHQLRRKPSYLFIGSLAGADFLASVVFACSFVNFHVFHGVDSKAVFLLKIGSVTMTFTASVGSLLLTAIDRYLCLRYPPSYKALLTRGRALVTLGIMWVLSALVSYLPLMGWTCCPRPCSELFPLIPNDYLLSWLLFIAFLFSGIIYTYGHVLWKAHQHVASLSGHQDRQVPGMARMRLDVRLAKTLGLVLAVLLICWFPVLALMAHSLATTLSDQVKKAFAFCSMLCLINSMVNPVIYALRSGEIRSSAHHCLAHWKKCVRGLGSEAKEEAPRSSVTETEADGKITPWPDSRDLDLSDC

[6] = biological target: T1, Glutamate NMDA receptor (Rattus norvegicus) (UniProt P35439+Q00959+Q00960+Q00961+Q62645+Q8VHN2+Q9R1M7); experiment: Inhibitor of NMDA/R in the Eurofins Cerep SafetyScreen44 (BI) by Radioactive Assay (Cerep_66); type: protein-complex assay; conditions: Compound concentration 10.0 uM
[7] = biological target: cGMP-inhibited 3',5'-cyclic phosphodiesterase 3A (Homo sapiens) (UniProt Q14432); experiment: Inhibitor of PDE3A in the Eurofins Cerep SafetyScreen44 (BI) by HTRF-homogeneous time resolved fluoresce (Cerep_4072); conditions: Compound concentration 10.0 uM
[8] = biological target: 3',5'-cyclic-AMP phosphodiesterase 4D (Homo sapiens) (UniProt Q08499); experiment: Inhibitor of PDE4D2 in the Eurofins Cerep SafetyScreen44 (BI) by Scintillation counting (Cerep_4077); conditions: Compound concentration 10.0 uM
[9] = biological target: Sodium-dependent serotonin transporter (Homo sapiens) (UniProt P31645); experiment: 5-HT transporter Eurofins-Cerep binding assay; design: ligand concentration 2 nM; conditions: Compound concentration 10.0 uM
[10] = biological target: Neutrophil elastase (Mus musculus, UniProt Q3UP87); experiment: ELANE inhibitor assay (mouse)
Chain of Neutrophil elastase (Q3UP87 whole entry): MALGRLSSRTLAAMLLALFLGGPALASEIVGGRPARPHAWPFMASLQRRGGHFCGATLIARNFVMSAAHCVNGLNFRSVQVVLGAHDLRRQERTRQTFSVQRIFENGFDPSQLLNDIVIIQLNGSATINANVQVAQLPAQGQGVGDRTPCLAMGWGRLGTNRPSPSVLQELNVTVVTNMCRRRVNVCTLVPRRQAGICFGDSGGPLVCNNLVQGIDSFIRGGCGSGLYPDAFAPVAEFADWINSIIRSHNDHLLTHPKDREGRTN

[11] = biological target: Cathepsin G (Homo sapiens, UniProt P08311); experiment: CTSG inhibition assay
[12] = biological target: 5-hydroxytryptamine receptor 6 (Homo sapiens) (UniProt P50406); experiment: Activity against 5HT6/H in the Eurofins SafetyScreen44 (BI) by Others (Old_Cerep_3); conditions: Compound concentration 10.0 uM
[13] = biological target: Adenosine receptor A1 (Homo sapiens) (UniProt P30542); experiment: A1 Eurofins-Cerep binding assay; design: ligand concentration 1 nM
Chain of Adenosine receptor A1 (Homo sapiens) (P30542 whole entry): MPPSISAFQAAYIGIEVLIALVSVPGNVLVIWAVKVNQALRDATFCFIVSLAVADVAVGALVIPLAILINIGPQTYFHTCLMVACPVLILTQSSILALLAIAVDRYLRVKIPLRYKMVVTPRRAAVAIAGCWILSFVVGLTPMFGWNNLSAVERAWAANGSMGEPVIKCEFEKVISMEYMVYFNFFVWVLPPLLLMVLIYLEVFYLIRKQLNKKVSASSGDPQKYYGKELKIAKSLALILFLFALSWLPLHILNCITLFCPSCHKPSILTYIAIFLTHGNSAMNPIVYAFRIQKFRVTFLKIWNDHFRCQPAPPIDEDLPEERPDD

[14] = biological target: Adrenergic receptor alpha-2 (Rattus norvegicus) (UniProt P22086+P19328+P22909); experiment: Inhibitor of ALPHA2/NS/R in the Eurofins SafetyScreen44 (BI) by Radioactive Assay (Old_Cerep_6); type: protein assay
[15] = biological target: B2 bradykinin receptor (Homo sapiens) (UniProt P30411); experiment: Activity against B2/HUM in the Eurofins SafetyScreen44 (BI) by Radioactive Assay (Old_Cerep_8)
Chain of B2 bradykinin receptor (Homo sapiens) (P30411 whole entry): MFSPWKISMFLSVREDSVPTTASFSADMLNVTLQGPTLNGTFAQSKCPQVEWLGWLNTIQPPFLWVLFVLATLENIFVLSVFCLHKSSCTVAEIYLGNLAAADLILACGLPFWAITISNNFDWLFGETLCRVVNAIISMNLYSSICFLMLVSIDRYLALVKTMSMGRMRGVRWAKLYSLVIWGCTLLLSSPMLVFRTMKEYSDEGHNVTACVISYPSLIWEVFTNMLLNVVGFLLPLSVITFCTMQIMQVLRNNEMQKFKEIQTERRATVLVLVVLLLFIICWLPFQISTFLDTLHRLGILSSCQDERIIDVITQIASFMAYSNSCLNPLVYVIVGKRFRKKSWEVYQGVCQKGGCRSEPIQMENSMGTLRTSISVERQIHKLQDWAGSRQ

[16] = biological target: Muscarinic acetylcholine receptor M4 (Homo sapiens) (UniProt P08173); experiment: M4 Eurofins-Cerep binding assay; conditions: Compound concentration 10.0 uM
[17] = biological target: Melanocortin receptor 4 (Homo sapiens) (UniProt P32245); experiment: MC4 Eurofins-Cerep binding assay; design: ligand concentration 0.05 nM; conditions: Compound concentration 10.0 uM
[18] = biological target: Substance-P receptor (Homo sapiens) (UniProt P25103); experiment: NK1 Eurofins-Cerep binding assay; conditions: Compound concentration 10.0 uM
Chain of Substance-P receptor (Homo sapiens) (P25103 whole entry): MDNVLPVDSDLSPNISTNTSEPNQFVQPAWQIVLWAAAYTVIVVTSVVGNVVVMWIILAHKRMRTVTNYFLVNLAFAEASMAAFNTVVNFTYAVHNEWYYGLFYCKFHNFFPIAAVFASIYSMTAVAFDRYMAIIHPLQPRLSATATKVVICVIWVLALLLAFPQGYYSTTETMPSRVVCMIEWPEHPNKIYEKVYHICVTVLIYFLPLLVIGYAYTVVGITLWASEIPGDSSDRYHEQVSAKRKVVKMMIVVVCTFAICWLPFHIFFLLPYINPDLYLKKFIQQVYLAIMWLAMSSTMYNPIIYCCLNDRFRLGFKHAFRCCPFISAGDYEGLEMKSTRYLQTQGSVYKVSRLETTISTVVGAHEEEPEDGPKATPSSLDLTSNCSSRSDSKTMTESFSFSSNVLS

[19] = biological target: Neurotensin receptor type 1 (Homo sapiens) (UniProt P30989); experiment: Activity against NT1/H in the Eurofins SafetyScreen44 (BI) by Radioactive Assay (Old_Cerep_27); conditions: Compound concentration 10.0 uM
Chain of Neurotensin receptor type 1 (Homo sapiens) (P30989 whole entry): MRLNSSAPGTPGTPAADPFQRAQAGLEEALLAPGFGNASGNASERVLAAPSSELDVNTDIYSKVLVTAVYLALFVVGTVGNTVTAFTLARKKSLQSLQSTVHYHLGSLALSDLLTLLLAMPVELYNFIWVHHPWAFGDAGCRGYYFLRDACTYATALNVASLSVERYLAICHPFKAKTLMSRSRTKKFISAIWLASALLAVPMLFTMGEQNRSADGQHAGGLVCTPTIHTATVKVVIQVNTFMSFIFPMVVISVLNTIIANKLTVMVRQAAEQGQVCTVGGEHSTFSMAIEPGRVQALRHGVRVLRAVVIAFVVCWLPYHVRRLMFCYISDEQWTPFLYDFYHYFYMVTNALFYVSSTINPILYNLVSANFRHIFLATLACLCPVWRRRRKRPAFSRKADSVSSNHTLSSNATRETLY

[20] = biological target: Nociceptin receptor (Homo sapiens) (UniProt P41146); experiment: Activity against ORL1/H in the Eurofins SafetyScreen44 (BI) by Radioactive Assay (Old_Cerep_28); conditions: Compound concentration 10.0 uM
Chain of Nociceptin receptor (Homo sapiens) (P41146 whole entry): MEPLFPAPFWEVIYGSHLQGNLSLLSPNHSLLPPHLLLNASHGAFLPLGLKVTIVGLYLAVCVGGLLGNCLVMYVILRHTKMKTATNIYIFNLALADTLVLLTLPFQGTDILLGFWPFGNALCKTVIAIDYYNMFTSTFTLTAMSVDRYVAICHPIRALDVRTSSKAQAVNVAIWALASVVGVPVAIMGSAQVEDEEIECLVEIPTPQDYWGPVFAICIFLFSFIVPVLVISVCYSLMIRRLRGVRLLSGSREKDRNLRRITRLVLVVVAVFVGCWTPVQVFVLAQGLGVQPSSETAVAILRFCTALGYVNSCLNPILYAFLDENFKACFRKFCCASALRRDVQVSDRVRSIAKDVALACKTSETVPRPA

[21] = biological target: P2X purinoceptor (Oryctolagus cuniculus) (UniProt G1U3D6); experiment: Activity against P2X/R in the Eurofins SafetyScreen44 (BI) by Others (Old_Cerep_29); conditions: Rattus norvegicus; Compound concentration 10.0 uM
[22] = biological target: T1, Glutamate NMDA receptor (Rattus norvegicus); experiment: PCP Eurofins-Cerep binding assay; type: protein-complex assay; conditions: Compound concentration 10.0 uM
[23] = biological target: Prostacyclin receptor (Homo sapiens) (UniProt P43119); experiment: Activity against PGI2/H in the Eurofins SafetyScreen44 (BI) by Radioactive Assay (Old_Cerep_34); conditions: Compound concentration 10.0 uM
[24] = biological target: Peroxisome proliferator-activated receptor gamma (Homo sapiens) (UniProt P37231); experiment: Agonist activity in the Eurofins SafetyScreen44 (BI) against PPARG/H AG by Radioactive Assay (Old_Cerep_35); conditions: Compound concentration 10.0 uM
Chain of Peroxisome proliferator-activated receptor gamma (Homo sapiens) (P37231 whole entry): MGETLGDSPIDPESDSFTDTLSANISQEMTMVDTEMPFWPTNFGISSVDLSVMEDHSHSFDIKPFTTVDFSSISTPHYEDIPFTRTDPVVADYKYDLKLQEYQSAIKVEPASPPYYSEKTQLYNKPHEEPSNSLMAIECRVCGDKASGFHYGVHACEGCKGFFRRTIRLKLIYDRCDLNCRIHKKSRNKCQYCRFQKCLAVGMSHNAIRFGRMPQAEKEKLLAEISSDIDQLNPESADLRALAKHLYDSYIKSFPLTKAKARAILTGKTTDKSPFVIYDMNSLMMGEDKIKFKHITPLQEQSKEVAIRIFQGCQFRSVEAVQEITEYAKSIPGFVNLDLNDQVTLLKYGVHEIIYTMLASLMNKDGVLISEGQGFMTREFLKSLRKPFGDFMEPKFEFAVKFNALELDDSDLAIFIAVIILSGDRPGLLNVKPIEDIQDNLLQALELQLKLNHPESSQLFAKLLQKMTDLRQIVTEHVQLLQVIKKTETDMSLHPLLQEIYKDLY

[25] = biological target: Somatostatin receptor type 5 (Mus musculus) (UniProt O08858); experiment: Activity against SOMATOS/M in the Eurofins SafetyScreen44 (BI) by Radioactive Assay (Old_Cerep_36); conditions: Compound concentration 10.0 uM
Chain of Somatostatin receptor type 5 (Mus musculus) (O08858 whole entry): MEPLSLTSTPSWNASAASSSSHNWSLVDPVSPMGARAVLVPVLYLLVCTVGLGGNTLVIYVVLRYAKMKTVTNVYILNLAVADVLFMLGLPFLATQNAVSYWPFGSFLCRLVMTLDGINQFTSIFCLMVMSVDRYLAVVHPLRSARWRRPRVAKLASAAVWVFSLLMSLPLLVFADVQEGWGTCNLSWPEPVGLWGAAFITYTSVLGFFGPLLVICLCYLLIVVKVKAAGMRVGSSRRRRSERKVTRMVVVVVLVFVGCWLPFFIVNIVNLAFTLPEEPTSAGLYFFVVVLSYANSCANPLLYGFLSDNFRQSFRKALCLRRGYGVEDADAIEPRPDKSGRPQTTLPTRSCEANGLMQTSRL

[26] = species: Rattus norvegicus; experiment: BZD (central) Eurofins-Cerep binding assay; conditions: Compound concentration 10.0 uM
[27] = biological target: 5-hydroxytryptamine receptor 1B (Rattus norvegicus) (UniProt P28564); experiment: Inhibitor of 5HT1B/R in the Eurofins SafetyScreen44 (BI) by Radioactive Assay (Old_Cerep_1); conditions: Compound concentration 10.0 uM
[28] = biological target: Cannabinoid receptor 1 (Homo sapiens) (UniProt P21554); experiment: Activity against CB1/CENTR/H in the Eurofins SafetyScreen44 (BI) by Radioactive Assay (Old_Cerep_12)
Chain of Cannabinoid receptor 1 (Homo sapiens) (P21554 whole entry): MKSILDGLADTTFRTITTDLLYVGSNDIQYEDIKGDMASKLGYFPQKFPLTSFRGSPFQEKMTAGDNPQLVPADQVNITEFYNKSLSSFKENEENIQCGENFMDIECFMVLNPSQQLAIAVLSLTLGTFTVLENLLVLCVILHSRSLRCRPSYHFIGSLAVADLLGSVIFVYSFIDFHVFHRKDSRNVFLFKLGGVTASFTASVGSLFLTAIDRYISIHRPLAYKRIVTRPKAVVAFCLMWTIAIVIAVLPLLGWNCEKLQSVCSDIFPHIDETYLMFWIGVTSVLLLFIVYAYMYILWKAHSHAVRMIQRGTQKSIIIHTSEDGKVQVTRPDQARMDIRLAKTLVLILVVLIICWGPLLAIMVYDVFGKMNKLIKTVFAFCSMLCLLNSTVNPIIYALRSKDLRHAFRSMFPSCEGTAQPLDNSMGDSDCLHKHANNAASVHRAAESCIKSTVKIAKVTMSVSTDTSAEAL

[29] = biological target: D(3) dopamine receptor (Homo sapiens) (UniProt P35462); experiment: D3 Eurofins-Cerep binding assay; conditions: Compound concentration 10.0 uM
[30] = biological target: Prostaglandin E2 receptor EP4 subtype (Homo sapiens) (UniProt P35408); experiment: Agonist activity in the Eurofins SafetyScreen44 (BI) against EP4/H AG by Radioactive Assay (Old_Cerep_19); conditions: Compound concentration 10.0 uM
[31] = biological target: Endothelin receptor type B (Homo sapiens) (UniProt P24530); experiment: Activity against ETB/H in the Eurofins SafetyScreen44 (BI) by Radioactive Assay (Old_Cerep_20); conditions: Compound concentration 10.0 uM
[32] = biological target: GABA-A receptor; anion channel (Rattus norvegicus) (UniProt O09028+P15431+P18506+P18508+P19969+P20236+P23574+P23576+P28471+P28473+P30191+P62813+P63079+P63138+Q91ZM7+Q9ES14); experiment: Inhibitor of GABA/NS/R in the Eurofins SafetyScreen44 (BI) by Radioactive Assay (Cerep_60); type: protein-complex assay; conditions: Compound concentration 10.0 uM
[33] = biological target: Kappa-type opioid receptor (Rattus norvegicus) (UniProt P34975); experiment: Inhibitor of KAPPA/R in the Eurofins SafetyScreen44 (BI) by Radioactive Assay (Old_Cerep_24); conditions: Compound concentration 10.0 uM

residual activity [9]: 105%
SMILES: CC(C)(O)CNC(=O)N1C(=O)N(c2cccc(C(F)(F)F)c2)C2=C(C(=O)CC2)[C@@H]1c1ccc(C#N)cc1
residual activity [1]: 105%
residual activity [2]: 101%
residual activity [3]: 98%
activity at 10 µM [4]: 104% (not active)
residual activity [5]: 83%
residual activity [6]: 96%
residual activity [7]: 97%
residual activity [8]: 114%

IC50 [10]: 12 nM (active)
IC50 [11]: > 10 µM (not active)
residual activity ([13]; Compound concentration 10.0 uM): 107%
residual activity ([13]; Compound concentration 30.0 uM): 102%
residual activity [16]: 95%
residual activity [17]: 92%
residual activity [18]: 115%
residual activity [22]: 104%
residual activity [26]: 111%
residual activity [29]: 96%
SMILES: CC(C)(O)CNC(=O)N1C(=O)N(c2cccc(C(F)(F)F)c2)C2=C(C(=O)CC2)[C@H]1c1ccc(C#N)cc1
residual activity [12]: 93%
residual activity ([14]; Compound concentration 10.0 uM): 93%
residual activity ([14]; Compound concentration 30.0 uM): 98%
residual activity ([15]; Compound concentration 10.0 uM): 107%
residual activity ([15]; Compound concentration 30.0 uM): 97%
residual activity [19]: 114%
residual activity [20]: 95%
residual activity [21]: 103%
residual activity [23]: 123%
residual activity [24]: 111%
residual activity [25]: 114%
residual activity [27]: 136%
residual activity ([28]; Compound concentration 10.0 uM): 87%
residual activity ([28]; Compound concentration 30.0 uM): 93%
residual activity [30]: 77%
residual activity [31]: 92%
residual activity [32]: 103%
residual activity [33]: 65%
